According to PubChem BioAssay (NCI):
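The compound was tested at five concentrations on cells cultured in 96-well plates, with a 48-hour exposure period. TGI denotes the concentration required for complete inhibition of growth.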

Legend:
Assay in all cases: DTP human tumour cell line panel, 48 h
786-0 renal = tested on: 786-0 renal
A498 renal = tested on: A498 renal
A549 NSCLC = tested on: A549 NSCLC
ACHN renal = tested on: ACHN renal
CAKI-1 renal = tested on: CAKI-1 renal
CCRF-CEM leukemia = tested on: CCRF-CEM leukemia
COLO 205 colon = tested on: COLO 205 colon
DU-145 prostate = tested on: DU-145 prostate
EKVX NSCLC = tested on: EKVX NSCLC
HCC-2998 colon = tested on: HCC-2998 colon
HCT-116 colon = tested on: HCT-116 colon
HCT-15 colon = tested on: HCT-15 colon
HL-60(TB) leukemia = tested on: HL-60(TB) leukemia
HOP-62 NSCLC = tested on: HOP-62 NSCLC
HOP-92 NSCLC = tested on: HOP-92 NSCLC
HT29 colon = tested on: HT29 colon
IGROV1 ovarian = tested on: IGROV1 ovarian
K-562 leukemia = tested on: K-562 leukemia
KM12 colon = tested on: KM12 colon
LOX IMVI melanoma = tested on: LOX IMVI melanoma
M14 melanoma = tested on: M14 melanoma
MALME-3M melanoma = tested on: MALME-3M melanoma
MCF7 breast = tested on: MCF7 breast
MDA-MB-231 breast = tested on: MDA-MB-231 breast
MDA-MB-435 = tested on: MDA-MB-435
MDA-N = tested on: MDA-N
MOLT-4 leukemia = tested on: MOLT-4 leukemia
NCI-H226 lung = tested on: NCI-H226 lung
NCI-H23 lung = tested on: NCI-H23 lung
NCI-H460 lung = tested on: NCI-H460 lung
NCI-H522 lung = tested on: NCI-H522 lung
NCI/ADR-RES ovarian = tested on: NCI/ADR-RES ovarian
OVCAR-3 ovarian = tested on: OVCAR-3 ovarian
OVCAR-4 ovarian = tested on: OVCAR-4 ovarian
OVCAR-5 ovarian = tested on: OVCAR-5 ovarian
OVCAR-8 ovarian = tested on: OVCAR-8 ovarian
PC-3 prostate = tested on: PC-3 prostate
RXF 393 renal = tested on: RXF 393 renal
SF-268 CNS = tested on: SF-268 CNS
SF-295 CNS = tested on: SF-295 CNS
SF-539 CNS = tested on: SF-539 CNS
SK-MEL-28 melanoma = tested on: SK-MEL-28 melanoma
SK-MEL-5 melanoma = tested on: SK-MEL-5 melanoma
SK-OV-3 ovarian = tested on: SK-OV-3 ovarian
SN12C renal = tested on: SN12C renal
SNB-19 CNS = tested on: SNB-19 CNS
SNB-75 CNS = tested on: SNB-75 CNS
SR leukemia = tested on: SR leukemia
SW-620 colon = tested on: SW-620 colon
T-47D breast = tested on: T-47D breast
TK-10 renal = tested on: TK-10 renal
U251 CNS = tested on: U251 CNS
UACC-257 melanoma = tested on: UACC-257 melanoma
UACC-62 melanoma = tested on: UACC-62 melanoma
UO-31 renal = tested on: UO-31 renal
BT-549 breast = tested on: BT-549 breast
HS 578T breast = tested on: HS 578T breast
RPMI-8226 leukemia = tested on: RPMI-8226 leukemia
SK-MEL-2 melanoma = tested on: SK-MEL-2 melanoma

For `CCOC(=O)c1c(-c2ccc(OC)cc2)c(C#N)c(=S)n(C2OC(COC(C)=O)C(OC(C)=O)C(OC(C)=O)C2OC(C)=O)c1C` (stereo not drawn), the TGI (786-0 renal) was > 100 µM, the TGI (A498 renal) was > 100 µM and the TGI (A549 NSCLC) was > 100 µM. The TGI (ACHN renal) was > 100 µM, the TGI (CAKI-1 renal) was > 100 µM and the TGI (CCRF-CEM leukemia) was > 100 µM. For the same compound, the TGI (COLO 205 colon) was > 100 µM, the TGI (DU-145 prostate) was > 100 µM and the TGI (EKVX NSCLC) was > 100 µM. The TGI (HCC-2998 colon) was > 100 µM, the TGI (HCT-116 colon) was > 100 µM and the TGI (HCT-15 colon) was > 100 µM. The TGI (HL-60(TB) leukemia) was > 100 µM, the TGI (HOP-62 NSCLC) was > 100 µM and the TGI (HOP-92 NSCLC) was 83.4 µM. For the same compound, the TGI (HT29 colon) was > 100 µM, the TGI (IGROV1 ovarian) was > 100 µM and the TGI (K-562 leukemia) was > 100 µM. The TGI (KM12 colon) was > 100 µM, the TGI (LOX IMVI melanoma) was > 100 µM and the TGI (M14 melanoma) was > 100 µM. For the same compound, the TGI (MALME-3M melanoma) was > 100 µM, the TGI (MCF7 breast) was > 100 µM and the TGI (MDA-MB-231 breast) was > 100 µM. The TGI (MDA-MB-435) was > 100 µM, the TGI (MDA-N) was > 100 µM and the TGI (MOLT-4 leukemia) was > 100 µM. For the same compound, the TGI (NCI-H226 lung) was > 100 µM, the TGI (NCI-H23 lung) was > 100 µM and the TGI (NCI-H460 lung) was > 100 µM. For the same compound, the TGI (NCI-H522 lung) was > 100 µM, the TGI (NCI/ADR-RES ovarian) was > 100 µM and the TGI (OVCAR-3 ovarian) was > 100 µM. The TGI (OVCAR-4 ovarian) was 92.2 µM, the TGI (OVCAR-5 ovarian) was > 100 µM and the TGI (OVCAR-8 ovarian) was > 100 µM. The TGI (PC-3 prostate) was > 100 µM, the TGI (RXF 393 renal) was > 100 µM and the TGI (SF-268 CNS) was > 100 µM. The TGI (SF-295 CNS) was > 100 µM, the TGI (SF-539 CNS) was > 100 µM and the TGI (SK-MEL-28 melanoma) was > 100 µM. For the same compound, the TGI (SK-MEL-5 melanoma) was > 100 µM, the TGI (SK-OV-3 ovarian) was > 100 µM and the TGI (SN12C renal) was > 100 µM. The TGI (SNB-19 CNS) was > 100 µM, the TGI (SNB-75 CNS) was 91 µM and the TGI (SR leukemia) was > 100 µM. The TGI (SW-620 colon) was > 100 µM, the TGI (T-47D breast) was > 100 µM and the TGI (TK-10 renal) was > 100 µM. The TGI (U251 CNS) was > 100 µM, the TGI (UACC-257 melanoma) was > 100 µM and the TGI (UACC-62 melanoma) was > 100 µM. It also gave a TGI (UO-31 renal) of 6.02 µM.

For `O=C1C(SCCO)=C(SCCO)C(=O)c2ccccc21`, the TGI (786-0 renal) was 3.91 µM, the TGI (A498 renal) was 1.35 µM and the TGI (A549 NSCLC) was 3.7 µM. The TGI (ACHN renal) was 2.26 µM, the TGI (BT-549 breast) was 2.89 µM and the TGI (CAKI-1 renal) was 4.24 µM. It also gave a TGI (CCRF-CEM leukemia) of 4.8 µM, a TGI (COLO 205 colon) of 3.27 µM and a TGI (EKVX NSCLC) of 3.08 µM. For the same compound, the TGI (HCC-2998 colon) was 3.42 µM, the TGI (HCT-116 colon) was 9.54 µM and the TGI (HCT-15 colon) was 3.58 µM. The TGI (HL-60(TB) leukemia) was 7.91 µM, the TGI (HOP-62 NSCLC) was 3.77 µM and the TGI (HOP-92 NSCLC) was 2.42 µM. For the same compound, the TGI (HS 578T breast) was 4.99 µM, the TGI (HT29 colon) was 3.98 µM and the TGI (IGROV1 ovarian) was 2.78 µM. The TGI (K-562 leukemia) was 3.87 µM, the TGI (KM12 colon) was 3.76 µM and the TGI (LOX IMVI melanoma) was 0.812 µM. For the same compound, the TGI (M14 melanoma) was 2.5 µM, the TGI (MALME-3M melanoma) was 2.85 µM and the TGI (MCF7 breast) was 2.36 µM. The TGI (MDA-MB-231 breast) was 4.15 µM, the TGI (MDA-MB-435) was 0.348 µM and the TGI (MDA-N) was 0.314 µM. It also gave a TGI (MOLT-4 leukemia) of 0.481 µM, a TGI (NCI-H226 lung) of 3.38 µM and a TGI (NCI-H23 lung) of 2.44 µM. The TGI (NCI-H460 lung) was 3.49 µM, the TGI (NCI-H522 lung) was 3.56 µM and the TGI (NCI/ADR-RES ovarian) was 2.53 µM. For the same compound, the TGI (OVCAR-3 ovarian) was 3.22 µM, the TGI (OVCAR-4 ovarian) was 0.671 µM and the TGI (OVCAR-5 ovarian) was 2.81 µM. It also gave a TGI (OVCAR-8 ovarian) of 1.22 µM, a TGI (PC-3 prostate) of 6.1 µM and a TGI (RPMI-8226 leukemia) of 3.09 µM. For the same compound, the TGI (RXF 393 renal) was 2.8 µM, the TGI (SF-268 CNS) was 3.21 µM and the TGI (SF-295 CNS) was 2.97 µM. For the same compound, the TGI (SF-539 CNS) was 2.02 µM, the TGI (SK-MEL-2 melanoma) was 4.24 µM and the TGI (SK-MEL-28 melanoma) was 3.18 µM. The TGI (SK-MEL-5 melanoma) was 0.653 µM, the TGI (SK-OV-3 ovarian) was 3.08 µM and the TGI (SN12C renal) was 3.06 µM. The TGI (SNB-19 CNS) was 3.23 µM, the TGI (SNB-75 CNS) was 2.57 µM and the TGI (SR leukemia) was 3.74 µM. The TGI (SW-620 colon) was 1.47 µM, the TGI (T-47D breast) was > 27.5 µM and the TGI (TK-10 renal) was 3.39 µM. For the same compound, the TGI (U251 CNS) was 2.01 µM, the TGI (UACC-257 melanoma) was 2.59 µM and the TGI (UACC-62 melanoma) was 2.84 µM. For the same compound, the TGI (UO-31 renal) was 2.57 µM.
